The results in this text go back to US20240327418A1, “MULTI-TARGET INHIBITOR TARGETING HDAC AND NAD SYNTHESIS AND USE OF MULTI-TARGET INHIBITOR” (OCEAN UNIVERSITY OF CHINA, priority 2021, published 2024).

Data set [1] in a line: Pharmacokinetic properties in mice. The data set is classed as in vivo.
The next data set deals with NAMPT (Homo sapiens (Human), UniProt P43490). Kind of data set: Inhibitory activity on NAMPT. In kind it is biochemical. The conditions noted are these: for IC50: mean of three independent experiments.
Data set [2] concerns acute myelogenous leukemia cells MV4-11. In words: GI50 and LC50 by NCI method, MV4-11. The conditions noted are these: Homo sapiens, 48 hours, Cell Titer-Blue. The data set is classed as cell-based. The protocol: (§1) The median growth inhibitory concentration (GI50) and median lethal concentration (LC50) were determined by NCI method. Leukemia cell strains MV4-11, HL60, PL21, KASUMI-1, MONO-MAC-1 and NB-4 were cultured in an Iscove's Modified Dulbecco Medium (IMDM) containing 10% fetal bovine serum, were inoculated into a 96-well cell culture plate at a density of 10,000 cells/100 μL and cultured overnight. 6 wells were selected as Tz wells, 0.125 mg/mL Cell Titer-Blue dye was added, and the cells were cultured for 4 hours and then the fluorescence intensity at […] (excitation wavelength/emission wavelength) was read. Compounds of different concentrations were added to the remaining wells, and a 100% control group was set. After 48 hours of cultivation, 0.125 mg/mL Cell Titer-Blue dye was added and the fluorescence intensity at […] was read after 4 hours. The fluorescence intensity of the dosing group was represented by Ti, the fluorescence intensity of the 100% control group was represented by C, and the fluorescence intensity before dosing was represented by Tz.
(§2) If Ti≥Tz, the formula [(Ti−Tz)/(C−Tz)]×100 was used.
(§3) If Ti<Tz, the formula [(Ti−Tz)/Tz]×100 was used.
(§4) The GI50 and LC50 values of some compounds on leukemia cell strains MV4-11, HL60, PL21, KASUMI-1, MONO-MAC-1 and NB-4 are shown in FIG. 1, Table 3, FIG. 2, and Table 4.
(The colour change of resazurin is a common sign of viable cells or microbes.)

For data set [3], the system named is acute myelogenous leukemia cells HL60. Kind of data set: GI50 and LC50 by NCI method, HL60. The data set is classed as cell-based. To be noted: for CC50 / GI50: Homo sapiens, HL-60, 48 hours, Cell Titer-Blue. The protocol: as §1, §2, §3, §4
The next data set concerns the target HDAC3 (Homo sapiens (Human), UniProt O15379). Kind of data set: Inhibitory activity on HDAC3 (fluorescence enzyme assay). The conditions noted are these: read-out: IC50 HDAC3; mean of three independent experiments.
In another data set the target is HDAC2 (Homo sapiens (Human), UniProt Q92769). In words: Inhibitory activity on HDAC2 (fluorescence enzyme assay). To be noted: read-out: IC50 HDAC2; mean of three independent experiments.
Another data set concerns the target HDAC1 (Homo sapiens (Human), UniProt Q13547). In words: Inhibitory activity on HDAC1 (fluorescence enzyme assay). The conditions noted are these: read-out: IC50 HDAC1; mean of three independent experiments.
The mark [4] stands for this setting: mouse, plasma, po 20 mg/kg single dose.

Sequence of NAMPT (P43490 whole entry, species assumed): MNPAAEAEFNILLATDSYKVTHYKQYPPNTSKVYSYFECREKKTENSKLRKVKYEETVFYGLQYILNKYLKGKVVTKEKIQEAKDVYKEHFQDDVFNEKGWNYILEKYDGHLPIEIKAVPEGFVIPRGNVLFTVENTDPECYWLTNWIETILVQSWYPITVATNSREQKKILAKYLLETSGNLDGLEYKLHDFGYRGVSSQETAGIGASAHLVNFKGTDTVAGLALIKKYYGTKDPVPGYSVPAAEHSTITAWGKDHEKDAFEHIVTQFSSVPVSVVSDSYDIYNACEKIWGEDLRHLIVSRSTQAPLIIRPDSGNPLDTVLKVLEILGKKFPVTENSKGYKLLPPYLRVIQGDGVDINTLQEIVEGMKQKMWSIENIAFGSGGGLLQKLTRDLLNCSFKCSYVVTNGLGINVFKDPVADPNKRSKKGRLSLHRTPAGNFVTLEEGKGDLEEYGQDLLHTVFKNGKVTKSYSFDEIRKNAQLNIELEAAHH
Sequence of HDAC1 (Q13547 whole entry, species assumed): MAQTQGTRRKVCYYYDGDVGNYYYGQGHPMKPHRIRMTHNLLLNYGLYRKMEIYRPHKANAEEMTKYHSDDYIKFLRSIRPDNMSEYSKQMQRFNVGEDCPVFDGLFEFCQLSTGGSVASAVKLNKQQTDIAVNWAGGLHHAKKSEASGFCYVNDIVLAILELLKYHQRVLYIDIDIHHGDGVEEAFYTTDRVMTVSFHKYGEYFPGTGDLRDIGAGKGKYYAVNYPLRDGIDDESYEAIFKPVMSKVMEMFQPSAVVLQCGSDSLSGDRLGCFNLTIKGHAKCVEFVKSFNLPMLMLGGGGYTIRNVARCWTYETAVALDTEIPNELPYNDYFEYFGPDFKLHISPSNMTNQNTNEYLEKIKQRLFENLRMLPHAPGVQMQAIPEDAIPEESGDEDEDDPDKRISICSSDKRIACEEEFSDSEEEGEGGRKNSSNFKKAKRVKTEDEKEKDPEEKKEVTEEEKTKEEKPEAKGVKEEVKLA
Sequence of HDAC2 (Q92769 whole entry, species assumed): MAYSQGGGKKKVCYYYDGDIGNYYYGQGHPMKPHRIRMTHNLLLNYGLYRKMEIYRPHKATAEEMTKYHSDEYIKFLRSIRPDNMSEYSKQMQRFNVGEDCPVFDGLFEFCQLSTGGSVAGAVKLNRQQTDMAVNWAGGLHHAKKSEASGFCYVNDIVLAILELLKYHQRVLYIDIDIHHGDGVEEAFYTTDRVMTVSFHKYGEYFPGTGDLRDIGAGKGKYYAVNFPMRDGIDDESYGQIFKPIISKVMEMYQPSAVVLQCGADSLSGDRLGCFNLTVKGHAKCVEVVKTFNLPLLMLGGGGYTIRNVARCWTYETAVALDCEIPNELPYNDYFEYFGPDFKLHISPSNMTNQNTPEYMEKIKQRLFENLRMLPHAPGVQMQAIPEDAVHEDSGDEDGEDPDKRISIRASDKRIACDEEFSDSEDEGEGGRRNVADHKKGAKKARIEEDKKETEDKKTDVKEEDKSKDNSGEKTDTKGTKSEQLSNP
Sequence of HDAC3 (O15379 whole entry, species assumed): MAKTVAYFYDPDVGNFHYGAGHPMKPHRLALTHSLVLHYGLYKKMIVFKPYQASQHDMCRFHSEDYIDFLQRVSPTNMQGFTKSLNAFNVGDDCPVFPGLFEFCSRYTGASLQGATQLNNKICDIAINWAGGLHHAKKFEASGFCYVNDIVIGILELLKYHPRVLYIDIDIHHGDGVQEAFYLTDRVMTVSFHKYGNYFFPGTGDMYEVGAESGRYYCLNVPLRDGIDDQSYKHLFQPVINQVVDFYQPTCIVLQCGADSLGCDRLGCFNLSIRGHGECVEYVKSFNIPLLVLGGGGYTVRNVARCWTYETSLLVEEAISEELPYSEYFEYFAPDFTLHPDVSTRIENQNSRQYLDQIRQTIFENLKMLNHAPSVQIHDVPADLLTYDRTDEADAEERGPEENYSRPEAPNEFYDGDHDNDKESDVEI
Sequence of HDAC3 (Q9Y618 395-489 partner, species assumed): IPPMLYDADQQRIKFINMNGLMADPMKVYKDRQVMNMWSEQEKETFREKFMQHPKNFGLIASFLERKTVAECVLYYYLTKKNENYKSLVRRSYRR

Usually AUC(0-t) stands for the area under the concentration-time curve up to a stated or last time point. A high value points to high exposure. As usually defined, the Tmax is the time from dosing to the highest level. In general, Cmax refers to the maximum level reached in the sampled fluid or tissue. By IC50 is commonly meant the concentration that gives 50% inhibition. Consider `CCCNNC(=O)/C=C/c1ccc(CNCCc2c(C)[nH]c3ccccc23)cc1` [Comparative example 2 LP97/13a, reference compound], for which, in data set [1] (setting [4]), the AUC(0-t) stood at 242 ng·h/mL and the Tmax came out at 30 min. The compound further gave a Cmax in data set [1] (po 20 mg/kg single dose) of 45.1 ng/mL. In addition, the F in data set [1] (po 20 mg/kg vs iv 5 mg/kg) is reported as 19.8%. The IC50 against NAMPT is greater than 20000 nM.

One may read the GI50 as the concentration that inhibits growth by half. Low values mean greater sensitivity of the cells, high ones lower sensitivity of the cells. As a reminder, the CC50 is the concentration giving 50% cytotoxicity. High values mean lower toxicity to the cells, low ones greater toxicity to the cells. Turning to `O=C(/C=C/c1cccnc1)NCCCCC1CCN(C(=O)c2ccccc2)CC1` [FK866, reference compound], the GI50 was 7.95 nM in data set [2] and 12.1 nM in data set [3]. Further, the CC50 in data set [3] was greater than 10000 nM.

In the case of `CCCNNC(=O)CCNC(=O)/C=C/c1cccnc1` [LEE1, (E)-N-(3-oxo-3-(2-propylhydrazino)propyl)-3-(pyridin-3-yl) acrylamide], the IC50 at HDAC3 was 1560 nM; at HDAC2, 13600 nM; on HDAC1 it was greater than 10000 nM.

As to `CCCNNC(=O)CCCCNC(=O)/C=C/c1cccnc1` [LEE2, (E)-N-(5-oxo-5-(2-propylhydrazino)pentyl)-3-(pyridin-3-yl) acrylamide], the IC50 at HDAC3 was 112 nM; at HDAC2, 2000 nM; on HDAC1, 689 nM.

As to `CCCNNC(=O)CCCCCCNC(=O)/C=C/c1cccnc1` [LEE3, (E)-N-(7-oxo-7-(2-propylhydrazino)heptyl)-3-(pyridin-3-yl) acrylamide], the IC50 on HDAC2 amounted to 339 nM.

As to `CCCNNC(=O)CCCCCCCNC(=O)/C=C/c1cccnc1` [LEE4, (E)-N-(8-oxo-8-(2-propylhydrazino)octyl)-3-(pyridin-3-yl) acrylamide], the figures for the IC50 at HDAC3, at HDAC2 and on HDAC1 were 76.7 nM, 506 nM and 241 nM, respectively.

On to `CCCNNC(=O)CCCCCCNC(=O)NCc1cccnc1` [LEE5, 1-(7-oxo-7-(2-propylhydrazino)heptyl)-3-(pyridin-3-ylmethyl) urea], for which the IC50 at HDAC3 was found to be 110 nM; at HDAC2 it was 398 nM; at HDAC1 it was 444 nM.

In data set [2], `CCCNNC(=O)CCCCCCNC(=O)c1cc2cnccc2[nH]1` [LEE7, N-(7-oxo-7-(2-propylhydrazino)heptyl)-3H-pyrrolo[3,2-c]pyridin-2-carboxamide] had a GI50 of 64.7 nM and an LC50 (median lethal concentration) of 164 nM. In addition, in data set [3], the “LC50 values in p53-null cell strain HL60 (in words)” value was “nanomolar level”, the CC50 was found to be 724 nM and it took 158 nM to inhibit growth by half (GI50).

Consider `Nc1ccccc1NC(=O)CCCCCCCNC(=O)/C=C/c1cccnc1` [LEE8, (E)-N-(2-aminophenyl)-8-(3-(pyridin-3-yl)acrylamido) octanamide], for which the IC50 at HDAC3 was 26.4 nM; at HDAC2, 321 nM; on HDAC1, 147 nM. The compound further had a GI50 in data set [2] of 31.2 nM. The LC50 (median lethal concentration) in data set [2] was 456 nM.

On to `Nc1ccccc1NC(=O)CCCCCCCn1cc(-c2cccnc2)nn1` [LEE11, N-(2-aminophenyl)-8-(4-(pyridin-3-yl)-1H-1,2,3-triazole-1-yl) octanamide], for which the IC50 was 8.78 nM on HDAC3 and 188 nM at HDAC2.

In the case of `CCCNNC(=O)c1ccc(CNC(=O)/C=C/c2ccccn2)cc1` [LEE13, (E)-N-(4-(2-propylhydrazino-1-carbonyl)benzyl)-3-(pyridin-2-yl) acrylamide], the IC50 on HDAC3 came out at 1.82 nM; on HDAC2, 49.2 nM; on HDAC1, 13.2 nM. Further, the concentration for 50% growth inhibition (GI50) amounted to 15 nM in data set [2] and 128 nM in data set [3]. The LC50 (median lethal concentration) in data set [2] was found to be 125 nM. This compound also gave a CC50 in data set [3] greater than 10000 nM.

Consider `CCCNNC(=O)c1ccc(CNC(=O)/C=C/c2ccncc2)cc1` [LEE14, (E)-N-(4-(2-propylhydrazino-1-carbonyl)benzyl)-3-(pyridin-4-yl)acrylamide], for which the IC50 on HDAC3 stood at 2.74 nM; on HDAC2, 88.5 nM; at HDAC1, 12.7 nM. Moreover, the GI50 was 14.3 nM in data set [2] and 63.1 nM in data set [3]. The compound further had an LC50 (median lethal concentration) in data set [2] of 83.6 nM. In addition, the “LC50 values in p53-null cell strain HL60 (in words)” value in data set [3] is “nanomolar level”. In addition, the CC50 in data set [3] stood at 6060 nM.

Regarding `CCCNNC(=O)c1ccc(CNC(=O)c2cc3cnccc3s2)cc1` [LEE19, N-(4-(2-propylhydrazin-1-carbonyl)benzyl)thiopheno[3,2-c]pyridin-2-carboxamide], the IC50 on HDAC3 was 1.2 nM; on HDAC2 it was 60 nM; on HDAC1, 10.1 nM. The GI50 turned out to be 54 nM in data set [2] and 77.3 nM in data set [3]. The LC50 (median lethal concentration) in data set [2] is 98.5 nM. The CC50 in data set [3] was greater than 10000 nM.

As for `CCCNNC(=O)c1ccc(CNC(=O)c2cc3cnccc3o2)cc1` [LEE20, N-(4-(2-propylhydrazino-1-carbonyl)benzyl)furan[3,2-c]pyridine-2-carboxyamide], the IC50 is 0.52 nM on HDAC3, 38.4 nM on HDAC2 and 10.3 nM at HDAC1. In data set [2], this compound registered a GI50 of 50.4 nM. Besides, the LC50 (median lethal concentration) in data set [2] came to 109 nM. The compound also displayed a CC50 in data set [3] greater than 10000 nM.

Take `CCCNNC(=O)c1ccc(CNC(=O)c2cc3ccncc3[nH]2)cc1` [LEE21, N-(4-(2-propylhydrazino-1-carbonyl)benzyl)-1H-pyrrolo[2,3-c]pyridine-2-carboxamide]: the IC50 came to 2.42 nM on HDAC3, 51.5 nM at HDAC2 and 8.17 nM on HDAC1. The GI50 was found to be 25.4 nM in data set [2] and 81.5 nM in data set [3]. This compound also yielded an LC50 (median lethal concentration) in data set [2] of 58 nM. The same compound returned a CC50 in data set [3] greater than 10000 nM.

With `CCCNNC(=O)c1ccc(CNC(=O)CCCCCCCNC(=O)/C=C/c2cccnc2)cc1` [LEE37, (E)-N-(4-(2-propylhydrazino-1-carbonyl)benzyl)-8-(3-(pyridine-3-yl)acrylamido) octanamide], the IC50 is 1.98 nM at HDAC3, 84.1 nM at HDAC2 and 17.8 nM on HDAC1.

With `CCCNNC(=O)c1ccc(NC(=O)CCCCCCCNC(=O)/C=C/c2cccnc2)cc1` [LEE38, (E)-N-(4-(2-propylhydrazino-1-carbonyl)phenyl)-8-(3-(pyridine-3-yl)acrylamido) amide], the IC50 amounted to 97.4 nM at HDAC3, 539 nM on HDAC2 and 620 nM at HDAC1.

In the case of `CCCNNC(=O)c1ccc(CNC(=O)CCCCCCNC(=O)/C=C/c2cccnc2)cc1` [LEE39, (E)-N-(4-(2-propylhydrazino-1-carbonyl)benzyl)-7-(3-(pyridine-3-yl)acrylamido) heptanamide], the IC50 at HDAC3 stood at 84.3 nM; on HDAC2, 1180 nM; at HDAC1 it was 501 nM.

With `CCCNNC(=O)c1ccc(NC(=O)CCCCCCNC(=O)/C=C/c2cccnc2)cc1` [LEE40, (E)-N-(4-(2-propylhydrazino-1-carbonyl)phenyl)-7-(3-(pyridine-3-yl)acrylamido) heptamide], the IC50 on HDAC3 was determined as 12.4 nM; at HDAC2 it was 123 nM. Also, in data set [2], the GI50 was 15.7 nM.

On to `CCCNNC(=O)c1ccc(NC(=O)CCCCCCCn2cc(-c3cccnc3)nn2)cc1` [LEE41, N-(4-(2-propylhydrazino-1-carbonyl)phenyl)-8-(4-(pyridin-3-yl)-1H-1,2,3-triazole-1-yl) octanamide], for which the IC50 was 1.08 nM at HDAC3, 78.7 nM at HDAC2 and 18 nM at HDAC1.

`COC(=O)c1ccc(CNC(=O)/C=C/c2cccnc2)cc1` [LEE43, methyl (E)-4-((3-(pyridine-3-yl)acrylamido)methyl) benzoate]: at NAMPT, the “inhibitory activity against NAMPT (in words)” value is on record as “micromolar level” and the IC50 was 4680 nM.

For the compound `COC(=O)c1ccc(CNC(=O)c2cc3cnccc3[nH]2)cc1` [LEE44, methyl 4-((1H-pyrrolo[3,2-c]pyridine-2-carbonylamide)methyl) benzoate], on NAMPT, the “inhibitory activity against NAMPT (in words)” value is reported as “micromolar level” and 6710 nM corresponded to half-maximal inhibition (IC50).
